In patent US12129490B2, “Methods for generating hepatocytes and cholangiocytes from pluripotent stem cells” (UNIVERSITY HEALTH NETWORK, priority 2018, dated 2024):
Values joined by “and” are separate entries in the source; they are usually repeats but may differ in a detail not shown here. Equal entries are not always repeated.

What was measured:
CYP2B6 = target: T1, CYP2B6 (Homo sapiens, UniProt P20813); assay: CYP2B6 activity, hydroxylation of bupropion by HPLC; type: in vitro ADME; details: 8-Br-cAMP-treated cells versus primary hepatocytes
T1 sequence (P20813 1-491): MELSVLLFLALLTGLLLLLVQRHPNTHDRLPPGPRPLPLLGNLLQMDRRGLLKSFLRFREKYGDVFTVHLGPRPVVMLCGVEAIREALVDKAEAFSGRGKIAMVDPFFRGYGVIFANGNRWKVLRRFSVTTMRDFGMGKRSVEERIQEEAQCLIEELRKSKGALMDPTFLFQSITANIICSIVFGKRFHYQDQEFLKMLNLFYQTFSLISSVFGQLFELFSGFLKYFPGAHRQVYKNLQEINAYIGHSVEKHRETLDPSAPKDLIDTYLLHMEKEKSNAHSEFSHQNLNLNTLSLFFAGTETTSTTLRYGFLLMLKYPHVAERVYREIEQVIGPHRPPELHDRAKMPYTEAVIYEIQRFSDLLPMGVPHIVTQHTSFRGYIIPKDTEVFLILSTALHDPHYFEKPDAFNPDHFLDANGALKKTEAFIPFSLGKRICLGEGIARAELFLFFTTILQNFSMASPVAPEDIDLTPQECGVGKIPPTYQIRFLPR
Method: Formation of the metabolite O-hydroxy-bupropion from bupropion was measured by HPLC. Activity is presented per 50,000 cells, (n=3).

hESC-derived cells = assay: Albumin secretion, ELISA; type: cell-based, human
Method: The levels of albumin (ALB) secreted by hESC-derived monolayer and aggregate populations, as well as by HepG2 cells, Huh7 cells and cryopreserved hepatocytes (PH, lot OSI) was detected using an ELISA assay. […] Only low levels were detected in HepG2, Huh7 and PH cells. By contrast, the capacity to take up indocyanine green (ICG), a characteristic of adult hepatocytes (Stieger et al., 2012) was enhanced by cAMP signaling. ICG uptake and release by cAMP-treated and non-treated was measured in day 44 aggregates.

[1] = system: UDP-glucuronosyltransferase (UGT); assay: Total UGT activity, 4-MU glucuronidation; type: in vitro ADME, human; details: cAMP-treated aggregates versus primary cultured hepatocytes
hepatic aggregates = assay: Indocyanine green (ICG) uptake of hepatic aggregates; type: cell-based, human; details: day 44 aggregates
Method: The indocyanine green (ICG, Sigma) solution was added to the cells at final concentration of 1 mg/ml ICG in HCM (Lonza). The cells were incubated at 37° C. for 1 hour, washed 3 times with PBS, and then examined with an inverted Microscope (Leica).

CYP1A2 = target: T2, CYP1A2 (Homo sapiens, UniProt P05177); assay: CYP1A2 activity, phenacetin metabolism by HPLC; details: 8-Br-cAMP-treated cells versus primary cultured hepatocytes
T2 sequence (P05177 1-516): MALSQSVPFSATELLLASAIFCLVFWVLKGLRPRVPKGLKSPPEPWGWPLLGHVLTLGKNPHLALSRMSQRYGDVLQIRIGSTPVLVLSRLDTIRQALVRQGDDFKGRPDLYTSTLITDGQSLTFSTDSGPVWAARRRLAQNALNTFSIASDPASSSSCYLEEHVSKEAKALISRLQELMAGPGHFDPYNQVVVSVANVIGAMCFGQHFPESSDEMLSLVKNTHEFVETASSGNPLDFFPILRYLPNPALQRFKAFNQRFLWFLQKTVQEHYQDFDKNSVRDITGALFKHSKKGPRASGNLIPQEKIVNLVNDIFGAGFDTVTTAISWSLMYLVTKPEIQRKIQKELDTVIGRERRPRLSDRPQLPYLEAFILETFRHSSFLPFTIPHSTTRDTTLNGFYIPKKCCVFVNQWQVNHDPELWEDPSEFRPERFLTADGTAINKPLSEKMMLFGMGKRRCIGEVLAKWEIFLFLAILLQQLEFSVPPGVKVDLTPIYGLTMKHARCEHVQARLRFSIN

[2] = system: hESC-derived hepatic aggregates; assay: Intracellular flow cytometry of AFP+ and ALB+ cells in hepatic aggregates; type: cell-based, human; details: day 44 aggregates
Method: The proportion of ALB positive cells, on the other hand, was higher in the cAMP-treated population (89.5+/−5.6% vs 82.3+/−3.0%, P<0.05 (mean+/−SD, n=3).
Flow cytometric analyses were performed as described previously^45. For cell surface markers, staining was carried out in PBS with 10% FCS. For intracellular proteins, staining was performed on cells fixed with 4% paraformaldehyde (Electron Microscopy Science, Hatfield, PA, USA) in PBS. Cells were permeabilized with 90% ice-cold methanol for 20 minutes for Sox17 and FoxA2 staining as previously described^45. Albumin and alpha-fetoprotein staining was performed in PBS with 10% FCS and 0.5% saponin (Sigma). Stained cells were analyzed using an LSRII flow cytometer (BD).

Nc1ncnc2c1nc(Br)n2[C@@H]1O[C@@H]2COP(=O)(O)O[C@H]2[C@H]1O [8-Br-cAMP, 8-bromoadenosine-3′5″-cyclic monophosphate]
CYP2B6 activity, hydroxylation of bupropion (CYP2B6): comparable to those found in primary hepatocytes | albumin secretion (hESC-derived cells): not impacted | UGT activity [1]: higher than that of primary cultured hepatocytes | ICG staining of aggregates (hepatic aggregates): almost all treated aggregates stained with ICG | O-deethylation of phenacetin (CYP1A2 activity) (CYP1A2): as high as primary cultured hepatocytes | proportion of AFP+ cells [2]: 26% and 34.5+/−12.4% | proportion of ALB+ cells [2]: 89.5+/−5.6%
